Source: the supplement of paper PMC10307832

Columns and labels:
Experiment in all cases: relative viability (nuclei count vs DMSO), 5 days (fraction); higher = more cells survive
Zebularine + Trametinib = compound: O=c1ncccn1[C@@H]1O[C@H](CO)[C@@H](O)[C@H]1O [Zebularine] + CC(=O)Nc1cccc(-n2c(=O)n(C3CC3)c(=O)c3c(Nc4ccc(I)cc4F)n(C)c(=O)c(C)c32)c1 [Trametinib] (partner 0.02 µM)
How it was run: (§1)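 Lung cancer cell lines, seeded in 1536-well plates, were treated the following day by pin tool with a single drug or with five library-drug doses (not always all listed) in √10 steps on top of a fixed anchor-drug dose. Cells were fixed and nuclei stained in one step after 5 days, and nuclei were counted. Relative viability is the nuclei count for treated wells divided by that for vehicle wells, reported as medians of duplicate plates.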

Zebularine + Navitoclax = compound: O=c1ncccn1[C@@H]1O[C@H](CO)[C@@H](O)[C@H]1O [Zebularine] + CC1(C)CCC(c2ccc(Cl)cc2)=C(CN2CCN(c3ccc(C(=O)NS(=O)(=O)c4ccc(N[C@H](CCN5CCOCC5)CSc5ccccc5)c(S(=O)(=O)C(F)(F)F)c4)cc3)CC2)C1 [Navitoclax] (partner 0.5 µM)
How it was run: as §1

BI-D1870 + Foretinib = compound: CC(C)CCN1c2nc(Nc3cc(F)c(O)c(F)c3)ncc2N(C)C(=O)C1C [BI-D1870] + COc1cc2c(Oc3ccc(NC(=O)C4(C(=O)Nc5ccc(F)cc5)CC4)cc3F)ccnc2cc1OCCCN1CCOCC1 [Foretinib] (partner 0.25 µM)
How it was run: as §1

BI-D1870 + Vorinostat = compound: CC(C)CCN1c2nc(Nc3cc(F)c(O)c(F)c3)ncc2N(C)C(=O)C1C [BI-D1870] + O=C(CCCCCCC(=O)Nc1ccccc1)NO [Vorinostat] (partner 1 µM)
How it was run: as §1

Cell Line | relative viability (Zebularine + Trametinib; first compound 1 µM) | relative viability (Zebularine + Trametinib; first compound 3.162 µM) | relative viability (Zebularine + Trametinib; first compound 10 µM) | relative viability (Zebularine + Trametinib; first compound 31.62 µM) | relative viability (Zebularine + Trametinib; first compound 100 µM) | relative viability (Zebularine + Navitoclax; first compound 1 µM) | relative viability (Zebularine + Navitoclax; first compound 3.162 µM) | relative viability (Zebularine + Navitoclax; first compound 10 µM) | relative viability (Zebularine + Navitoclax; first compound 31.62 µM) | relative viability (Zebularine + Navitoclax; first compound 100 µM) | relative viability (BI-D1870 + Foretinib; first compound 0.04 µM) | relative viability (BI-D1870 + Foretinib; first compound 0.1265 µM) | relative viability (BI-D1870 + Foretinib; first compound 0.4 µM) | relative viability (BI-D1870 + Foretinib; first compound 1.265 µM) | relative viability (BI-D1870 + Foretinib; first compound 4 µM) | relative viability (BI-D1870 + Vorinostat; first compound 0.04 µM) | relative viability (BI-D1870 + Vorinostat; first compound 0.1265 µM) | relative viability (BI-D1870 + Vorinostat; first compound 0.4 µM) | relative viability (BI-D1870 + Vorinostat; first compound 1.265 µM) | relative viability (BI-D1870 + Vorinostat; first compound 4 µM)
NCI-H1355 | 0.449 | 0.45 | 0.468 | 0.383 | 0.335 | 0.955 | 0.894 | 0.898 | 0.456 | 0.306 | 1.05 | 0.863 | 0.91 | 1.07 | 0.967 | 0.74 | 0.613 | 0.657 | 0.731 | 0.608
NCI-H1395 | 1.15 | 1.05 | 0.966 | 0.767 | 0.62 | 0.99 | 1.37 | 0.919 | 0.629 | 0.473 | 1.03 | 0.92 | 0.964 | 1.05 | 0.981 | 0.774 | 0.641 | 0.801 | 0.705 | 0.597
NCI-H1437 | 0.545 | 0.532 | 0.419 | 0.619 | 0.661 | 1.23 | 1.16 |  | 0.99 | 0.364 | 1.35 | 1.24 | 1.19 | 1.25 | 1.14 | 0.809 | 0.747 | 0.749 | 0.76 | 0.492
NCI-H1650 | 0.674 | 0.597 | 0.399 | 0.9 | 0.488 | 1.06 | 1.06 |  | 1.21 | 0.704 | 1.31 | 0.756 | 1.08 | 1.18 | 1.27 | 0.613 | 0.425 | 0.646 | 0.595 | 0.577
NCI-H1651 | 0.875 | 0.865 | 0.82 | 0.772 | 0.35 | 1.22 | 1.03 |  | 0.971 | 0.506 | 0.921 | 0.807 | 0.882 | 0.771 | 0.356 | 0.557 | 0.536 | 0.472 | 0.623 | 0.451
NCI-H1666 | 0.884 | 0.817 | 0.699 | 0.865 | 0.842 | 0.98 | 1.05 | 0.857 | 1.08 | 0.575 | 1.1 | 0.936 | 0.952 | 1.07 | 0.963 | 1.03 | 1.01 | 0.942 | 0.956 | 1.02
NCI-H1734 | 0.738 | 0.641 | 0.527 | 0.54 | 0.275 | 0.926 | 0.769 | 0.513 | 0.475 | 0.22 | 0.881 | 0.827 | 0.883 | 0.936 | 0.837 | 0.805 | 0.744 | 0.78 | 0.779 | 0.617
NCI-H1755 | 0.885 | 0.766 | 0.726 | 0.761 | 0.61 | 1.14 | 1.04 | 0.773 | 1.01 | 0.444 | 0.908 | 0.865 | 0.882 | 1.03 | 0.884 | 0.938 | 0.738 | 0.705 | 0.849 | 0.788
NCI-H1793 | 0.466 | 0.477 | 0.257 | 0.269 | 0.21 | 0.403 | 0.448 | 0.318 | 0.285 | 0.208 | 0.72 | 0.561 | 0.63 | 0.737 | 0.943 | 0.914 | 0.718 | 0.615 | 1.04 | 0.606
NCI-H1915 | 0.315 | 0.31 | 0.322 | 0.319 | 0.287 | 0.816 | 0.769 | 0.565 | 0.872 | 0.771 | 1.12 | 1.01 | 1.08 | 1.06 | 0.99 | 0.55 | 0.484 | 0.513 | 0.489 | 0.436
NCI-H1944 | 0.481 | 0.411 | 0.45 | 0.498 | 0.419 | 1.11 | 0.984 | 0.705 | 0.9 | 0.669 | 0.992 | 0.799 | 0.848 | 1.04 | 0.973 | 0.894 | 0.5 | 0.484 | 0.57 | 0.405
NCI-H1975 | 0.298 | 0.268 | 0.338 | 0.283 | 0.222 | 1.13 | 1.08 | 0.64 | 0.575 | 0.229 | 0.996 | 0.849 | 0.884 | 0.912 | 0.847 | 0.747 | 0.617 | 0.686 | 0.664 | 0.425
NCI-H1993 | 0.55 | 0.506 | 0.51 | 0.574 | 0.367 | 0.946 | 0.946 |  | 1.02 | 0.754 | 0.777 | 0.659 | 0.715 | 0.784 | 0.842 | 0.763 | 0.689 | 0.767 | 1.1 | 0.631
NCI-H2009 | 0.294 | 0.276 | 0.274 | 0.243 | 0.197 | 1.12 | 1.13 | 0.951 | 0.876 | 0.358 | 1.31 | 1.09 | 1.23 | 1.12 | 1 | 0.776 | 0.629 | 0.76 | 0.599 | 0.461
NCI-H2023 | 0.595 | 0.636 | 0.367 | 0.523 | 0.308 | 1.14 | 1.04 | 0.851 | 0.924 | 0.247 | 0.919 | 0.635 | 0.823 | 0.851 | 0.945 | 0.795 | 0.507 | 0.571 | 0.643 | 0.457
NCI-H2085 | 0.491 | 0.547 | 0.522 | 0.433 | 0.392 | 1.19 | 1.17 | 0.868 | 1.08 | 0.573 | 0.82 | 0.869 | 0.832 | 0.824 | 0.754 | 0.828 | 0.733 | 0.709 | 0.781 | 0.509
